Measured values reported in US11432549B2, “Carbamoyl triazolinone based herbicide combinations and method of use” (Arysta LifeScience Corporation, priority 2009, dated 2022).

What was measured:
[1] = system: Crabgrass sp.; experiment: Ex 5/7 greenhouse spray, bleaching/injury/density ratings; type: in vivo
Protocol: (§1) Containers were watered as needed based on species and water usage. The greenhouse was heated to keep temperatures above 50° F. (10° C.) and ventilated as needed to keep temperatures below 100° F. (38° C.). Typical daytime temperatures in the greenhouse were 80-90° F. (27-32° C.) and nighttime temperatures were between 50-60° F. (10-16° C.). The soil employed was Promix BX potting soil. Overall moisture conditions were normal and the closest weather station was on-site. Conditions and equipment employed in this Example are tabulated below in Tables 5-1 and 5-2.
(§2) All containers were moved outdoors from the greenhouse and arranged in blocks by treatment for the herbicide applications. A single spray application was applied to each block containing four repetitions of each species for each treatment. Plants were then immediately returned to the greenhouse and irrigated with approximately ¼″ water 1-3 hrs after treatment with a hose end sprayer. Only the Poa plants were trimmed with scissors two days prior to treatment at a height of approximately 3 inches.
Transplanted tillering Kentucky Bluegrass was 5 to 6 months old, transplanted Poa annua was 5 to 6 months old. Tall fescue was seeded into the crabgrass pots. St. Augustine plants (Floratam and Saphire) were shipped from Port St. Lucie, Fla. Only two replicates of Saphire St. Augustine grass were used due to plant availability.
Referring to FIGS. 2A-B, 3A-C, 4A-C, and 5A-D, all ratings of injury or bleaching are based on a scale from 1 to 9. […] Any bleaching measurement 4 and above was considered unacceptable for desirable turf species. In injury measurements, 1 indicates no injury while 9 indicates a dead plant. Any injury measurement 4 and above was considered unacceptable for desirable turf species). Density correlates with percent cover where 1 indicates no grass while 9 indicates a full pot.
Replications employed include 4, Untreated treatments: 1, Design: Randomized Complete Block, Treatment units: US standard, Treated plot size Width: 4 feet, Treated plot size Length: 4 feet, Application volume: 50 gal/ac, Mix size: 0.5562 liters, Mix overage: 100%, Format definitions: G-All7.DEF, G-All7.FRM.
In evaluating synergism, the data from Example 5 above were converted to % of control. This was done based on the data provided on a 1-9 scale detailed in Example 5. Expected values were computed from the % of control data by the formula for expected control=[…], where A is the % of control value for herbicide A alone and B is the % of control value for herbicide B alone.

[2] = system: Croton glandulosus (CROTON); experiment: Ex 4 pre-emergence, visual % damage; type: in vivo; conditions: kg/ha or L/ha: Amicarbazone 1.50, Gesapax 5.00, Karmex 5.00, Provence 0.20, Sencor 3.50, alone
Protocol: (§3) DINAMIC® (amicarbazone) in combination of various herbicides listed in Table 4-1 were tested for herbicidal activity.
(§4) The herbicidal effect was observed by comparing the extent of Croton glandulosus (CROTON) treated with the compounds against that occurring in similar non-treated control. Herbicidal effect was visually assessed and recorded at 14, 23, 36, 49, 65 and 77 days after treatment (DAT). Damage by the herbicidal compositions was evaluated with reference to a scale of 0% to 100% in comparison with untreated control. 0% means no damage and 100% means complete destruction of the plants. […] The theoretical herbicidal effect index were calculated based on Colby and the values were indicated in bracket (2). Some of the observed herbicidal effects were the same as the theoretical hervicidal effects, which indicate additive effects. The underlined values in the table indicate that the observed weed killing is greater than calculated from the Colby formula and therefore indicates a synergistic weed killing effect or activity.

[3] = system: Ipomoea gradifolia (IAOGR); experiment: Ex 4 pre-emergence, visual % damage; type: in vivo; conditions: kg/ha or L/ha: Amicarbazone 1.50, Gesapax 5.00, Karmex 5.00, Provence 0.20, Sencor 3.50, alone
Protocol: as §3
as §4, with “Ipomoea gradifolia (IAOGR)” for “Croton glandulosus (CROTON)”, “( ). […]” for “(2).”

[4] = system: Kentucky Bluegrass Seedling; conditions: in vivo
Protocol: as §1, §2
[…] Tall fescue was seeded into the crabgrass pots. St. Augustine plants (Floratam and Saphire) were shipped from Port St. Lucie, Fla. Only two replicates of Saphire St. Augustine grass were used due to plant availability.
Referring to FIGS. 2A-B, 3A-C, 4A-C, and 5A-D, all ratings of injury or bleaching are based on a scale from 1 to 9. […]

[5] = rating 1, 0.022 lbs ai/A (0.5 oz/A)
[6] = rating 1, 0.13 lbs ai/A (3 oz/A)
[7] = rating 2, 0.022 lbs ai/A (0.5 oz/A)
[8] = rating 2, 0.13 lbs ai/A (3 oz/A)
[9] = rating 3, 0.022 lbs ai/A (0.5 oz/A)
[10] = rating 3, 0.13 lbs ai/A (3 oz/A)
[11] = rating 4, 0.022 lbs ai/A (0.5 oz/A)
[12] = rating 4, 0.13 lbs ai/A (3 oz/A)
[13] = rating 5, 0.022 lbs ai/A (0.5 oz/A)
[14] = rating 5, 0.13 lbs ai/A (3 oz/A)
[15] = rating 6, 0.022 lbs ai/A (0.5 oz/A)
[16] = rating 6, 0.13 lbs ai/A (3 oz/A)

CC(C)c1nn(C(=O)NC(C)(C)C)c(=O)n1N [Amicarbazone, 4-amino-5-isopropyl-2-(tert-butyl-aminocarbonyl)-2,4-dihydro-3H-1,2,4-triazol-3-one]
Crabgrass bleaching [1, 5]: 97
Crabgrass cover [1, 5]: 88
Crabgrass injury [1, 5]: 94
Crabgrass bleaching [1, 6]: 100
Crabgrass cover [1, 6]: 67
Crabgrass injury [1, 6]: 100
Crabgrass bleaching [1, 7]: 100
Crabgrass cover [1, 7]: 94
Crabgrass injury [1, 7]: 100
Crabgrass bleaching [1, 8]: 100
Crabgrass cover [1, 8]: 67
Crabgrass injury [1, 8]: 100
Crabgrass bleaching [1, 9]: 100
Crabgrass cover [1, 9]: 100
Crabgrass injury [1, 9]: 100
Crabgrass bleaching [1, 10]: 100
Crabgrass cover [1, 10]: 72
Crabgrass injury [1, 10]: 100
Crabgrass bleaching [1, 11]: 100
Crabgrass injury [1, 11]: 97
Crabgrass bleaching [1, 12]: 100
Crabgrass injury [1, 12]: 94
Crabgrass bleaching [1, 13]: 97
Crabgrass injury [1, 13]: 97
Crabgrass bleaching [1, 14]: 100
Crabgrass injury [1, 14]: 94
Crabgrass bleaching [1, 15]: 97
Crabgrass injury [1, 15]: 94
Crabgrass bleaching [1, 16]: 100
Crabgrass injury [1, 16]: 94
Crabgrass bleaching ([1]; rating 7, 0.022 lbs ai/A (0.5 oz/A)): 100
Crabgrass bleaching ([1]; rating 7, 0.13 lbs ai/A (3 oz/A)): 100
Crabgrass bleaching ([1]; rating 8, 0.022 lbs ai/A (0.5 oz/A)): 100
Crabgrass bleaching ([1]; rating 8, 0.13 lbs ai/A (3 oz/A)): 100
percentage control ([2]; 14 DAT): 100%
percentage control ([2]; 23 DAT): 99%
percentage control ([2]; 36 DAT): 99%
percentage control ([2]; 49 DAT): 99%
percentage control ([2]; 65 DAT): 99%
percentage control ([2]; 77 DAT): 99%
percentage control ([3]; 14 DAT): 98%
percentage control ([3]; 23 DAT): 98%
percentage control ([3]; 36 DAT): 98%
percentage control ([3]; 49 DAT): 98%
percentage control ([3]; 65 DAT): 96%
percentage control ([3]; 77 DAT): 97%
injury to seedlings [4]: injured Kentucky Bluegrass seedlings
